According to ChEMBL document CHEMBL1201862, “PubChem BioAssay data set” (2004):
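1) Cells in 96-well plates. 2) Compound, 48 h, 5 concentrations. 3) Linear interpolation between surrounding doses. 4) Unreached endpoint = highest concentration. The concentration for 50% growth inhibition is given as GI50.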 Calls of active or inactive are those of the source. Cut-off read from the data, not from the text of the source: active = GI50 up to about 1.1 µM and inactive = higher.

Assays:
Experiment in all cases: NCI tumour cell line growth inhibition, 48 h
SK-OV-3 = tested on: SK-OV-3
NCI-H522 = tested on: NCI-H522
MCF7 = tested on: MCF7
SR = tested on: SR
Malme-3M = tested on: Malme-3M
DU-145 = tested on: DU-145
HCC 2998 = tested on: HCC 2998
SN12C = tested on: SN12C
HCT-15 = tested on: HCT-15
UO-31 = tested on: UO-31
HOP-92 = tested on: HOP-92
OVCAR-4 = tested on: OVCAR-4
A549 = tested on: A549
UACC-62 = tested on: UACC-62
RPMI-8226 = tested on: RPMI-8226
NCI-H460 = tested on: NCI-H460
786-0 = tested on: 786-0
HT-29 = tested on: HT-29
SNB-19 = tested on: SNB-19
BT-549 = tested on: BT-549

| SMILES | GI50 (SK-OV-3) | GI50 (NCI-H522) | GI50 (MCF7) | GI50 (SR) | GI50 (Malme-3M) | GI50 (DU-145) | GI50 (HCC 2998) | GI50 (SN12C) | GI50 (HCT-15) [µM] | GI50 (UO-31) | GI50 (HOP-92) | GI50 (OVCAR-4) | GI50 (A549) | GI50 (UACC-62) | GI50 (RPMI-8226) | GI50 (NCI-H460) | GI50 (786-0) | GI50 (HT-29) | GI50 (SNB-19) | GI50 (BT-549) |
| --- | --- | --- | --- | --- | --- | --- | --- | --- | --- | --- | --- | --- | --- | --- | --- | --- | --- | --- | --- | --- |
| O=CC1=C(C(=O)OC(c2ccccc2)c2ccccc2)N2C(=O)[C@@H](NC(=O)Cc3cccs3)[C@H]2SC1 | > 100 µM (inactive) | 64.3 µM (inactive) | > 100 µM (inactive) | 13.2 µM (inactive) | > 100 µM (inactive) | > 100 µM (inactive) | > 100 µM (inactive) | > 100 µM (inactive) | > 100 | 40 µM (inactive) | > 100 µM (inactive) | > 100 µM (inactive) | > 100 µM (inactive) | > 100 µM (inactive) | 79.4 µM (inactive) | > 100 µM (inactive) | > 100 µM (inactive) |  |  |  |
| CC(=O)N1CC(C)(C)c2c(C)c(O)c(C)c(C)c21 | > 100 µM (inactive) | > 100 µM (inactive) | > 100 µM (inactive) |  |  | > 100 µM (inactive) | > 100 µM (inactive) | > 100 µM (inactive) | > 100 | > 100 µM (inactive) | > 100 µM (inactive) | > 100 µM (inactive) | > 100 µM (inactive) | > 100 µM (inactive) | > 100 µM (inactive) | > 100 µM (inactive) | > 100 µM (inactive) | > 100 µM (inactive) | > 100 µM (inactive) |  |
| COc1ccc2[nH]c3c([N+](=O)[O-])ccc(NCCCN(C)C)c3/c(=N/CCCN(C)C)c2c1 | 2.01 µM (inactive) |  | 0.743 µM (active) | 0.28 µM (active) | 9.75 µM (inactive) | 3.24 µM (inactive) | 1.24 µM (inactive) | 1.35 µM (inactive) | 1.53 |  | 3.33 µM (inactive) | 0.914 µM (active) | 1.74 µM (inactive) | > 10 µM (inactive) | 0.635 µM (active) |  | 0.94 µM (active) | 1.12 µM (inactive) |  |  |
| O=S1(=O)N2CN3CN(C2)CN1C3 | 230 µM (inactive) | 177 µM (inactive) | 56.8 µM (inactive) |  | 129 µM (inactive) |  | 255 µM (inactive) | 34.9 µM (inactive) | 23.2 | 182 µM (inactive) | > 100 µM (inactive) | 28.7 µM (inactive) | 280 µM (inactive) | 22.6 µM (inactive) | 28.7 µM (inactive) | 51.5 µM (inactive) | 30.5 µM (inactive) | 26 µM (inactive) | 238 µM (inactive) |  |
| O=C1CC(c2ccccc2Cl)Oc2ccccc21 (centres undefined) | > 100 µM (inactive) |  | 11.4 µM (inactive) | 23.2 µM (inactive) |  | 45 µM (inactive) | 71.1 µM (inactive) |  | 24.7 | 57.5 µM (inactive) | 25 µM (inactive) | 51.9 µM (inactive) |  | 45.3 µM (inactive) | 17.5 µM (inactive) | 28.8 µM (inactive) | 29 µM (inactive) | 10.8 µM (inactive) | 34.9 µM (inactive) |  |
| CSc1nc(-c2cc3c(c(SC)n2)CCCCC3)cc2c1CCCCC2 | 50.1 µM (inactive) | 7.67 µM (inactive) |  |  |  | > 100 µM (inactive) | > 100 µM (inactive) | > 100 µM (inactive) | > 100 | > 100 µM (inactive) |  | > 100 µM (inactive) | > 100 µM (inactive) | > 100 µM (inactive) | > 100 µM (inactive) | > 100 µM (inactive) | > 100 µM (inactive) | > 100 µM (inactive) | > 100 µM (inactive) | > 100 µM (inactive) |
| COC(=O)C1=CC2C=CC(C1C(=O)OC)C1C(C(=O)OC)=C(C(=O)OC)C(C(=O)OC)=C(C(=O)OC)C21OC (centres undefined) | > 100 µM (inactive) | > 100 µM (inactive) |  | > 100 µM (inactive) | > 100 µM (inactive) |  | > 100 µM (inactive) | > 100 µM (inactive) | > 100 | > 100 µM (inactive) | > 100 µM (inactive) | > 100 µM (inactive) | > 100 µM (inactive) | > 100 µM (inactive) | > 100 µM (inactive) | > 100 µM (inactive) | > 100 µM (inactive) | > 100 µM (inactive) |  |  |
| O=C1c2cscc2C(=O)c2c(OCc3ccccc3)ccc(OCc3ccccc3)c21 | > 100 µM (inactive) | > 100 µM (inactive) | > 100 µM (inactive) | 54 µM (inactive) | > 100 µM (inactive) | > 100 µM (inactive) | 53.1 µM (inactive) | > 100 µM (inactive) |  | 62.5 µM (inactive) | > 100 µM (inactive) | > 100 µM (inactive) | > 100 µM (inactive) | > 100 µM (inactive) | > 100 µM (inactive) | > 100 µM (inactive) | 58.2 µM (inactive) | 58.1 µM (inactive) | > 100 µM (inactive) |  |
| CNC(=O)OCc1nccc2c(C)c3[nH]c4ccc(OC)cc4c3cc12 | 10.7 µM (inactive) | 5.09 µM (inactive) |  | 0.218 µM (active) | 7.98 µM (inactive) |  | 5.57 µM (inactive) | 19.1 µM (inactive) | 3.03 | 3.35 µM (inactive) | 10.6 µM (inactive) | 8.11 µM (inactive) | 4.9 µM (inactive) | 6.37 µM (inactive) | 2.59 µM (inactive) | 1.08 µM (active) | 3.78 µM (inactive) | 2.54 µM (inactive) | 3.78 µM (inactive) |  |
| O=[N+]([O-])/C=C1\COCc2cc3c(cc21)OCO3 | 42.7 µM (inactive) | 20.7 µM (inactive) | 18.5 µM (inactive) | 18.9 µM (inactive) |  | 19.1 µM (inactive) | 18 µM (inactive) | 22.5 µM (inactive) | 19.1 | 18.9 µM (inactive) | 30.7 µM (inactive) |  | 22 µM (inactive) | 21.1 µM (inactive) | 21.7 µM (inactive) | 30.9 µM (inactive) | 19.3 µM (inactive) | 25.1 µM (inactive) |  |  |
| CC1(C)[C@@H]2CC[C@@]1(C)[C@H](O)[C@@H]2SCc1ccccc1 | 20.5 µM (inactive) | 15.2 µM (inactive) |  | 28.8 µM (inactive) |  | 19.9 µM (inactive) | 19.5 µM (inactive) | 17.8 µM (inactive) | 14.8 | 21 µM (inactive) | 13.7 µM (inactive) | 12.9 µM (inactive) | 19 µM (inactive) | 10.2 µM (inactive) | 27.5 µM (inactive) | 19.2 µM (inactive) | 17 µM (inactive) | 14.7 µM (inactive) | 16.8 µM (inactive) |  |
| O=c1c2c([nH]c3cc4c(cc13)OCO4)-c1ccccc1C2 | 31.3 µM (inactive) | 22.4 µM (inactive) |  | 18.1 µM (inactive) | 23.2 µM (inactive) |  | 24.4 µM (inactive) | 30.3 µM (inactive) | 19.3 | 24.8 µM (inactive) | 18.3 µM (inactive) | 33.3 µM (inactive) | 27.1 µM (inactive) | 17.1 µM (inactive) | 15 µM (inactive) | 22.3 µM (inactive) | 28.1 µM (inactive) | 17.7 µM (inactive) | 37.1 µM (inactive) |  |
| COc1ccc2c(c1)[n+]([O-])c(C(=O)CC(=O)C(=O)Nc1cccc(C)c1C)c(C)[n+]2[O-] | > 100 µM (inactive) | > 100 µM (inactive) |  | > 100 µM (inactive) | > 100 µM (inactive) |  | > 100 µM (inactive) | > 100 µM (inactive) | > 100 | > 100 µM (inactive) | > 100 µM (inactive) | > 100 µM (inactive) | > 100 µM (inactive) | > 100 µM (inactive) | > 100 µM (inactive) | > 100 µM (inactive) | > 100 µM (inactive) | > 100 µM (inactive) | > 100 µM (inactive) |  |
| CCN(CC)CCCNc1nccc2c(C)c3[nH]c4ccncc4c(=O)c3cc12 | 3.77 µM (inactive) | 0.52 µM (active) |  | 0.13 µM (active) | 3.83 µM (inactive) |  | 2.37 µM (inactive) | 1.5 µM (inactive) | 8.71 | 9.79 µM (inactive) | 1.75 µM (inactive) | 0.604 µM (active) | 3.01 µM (inactive) | 1.53 µM (inactive) | 2.64 µM (inactive) | 1.71 µM (inactive) | 0.977 µM (active) | 1.32 µM (inactive) | 2.87 µM (inactive) |  |
| CCOC(=O)C(=O)Nc1ccccc1C(C)C | > 100 µM (inactive) | > 100 µM (inactive) |  | > 100 µM (inactive) | > 100 µM (inactive) |  | > 100 µM (inactive) | > 100 µM (inactive) | > 100 | > 100 µM (inactive) | > 100 µM (inactive) | > 100 µM (inactive) | > 100 µM (inactive) | > 100 µM (inactive) | > 100 µM (inactive) | > 100 µM (inactive) | > 100 µM (inactive) | > 100 µM (inactive) | > 100 µM (inactive) |  |
| COc1ccc(/C=N/Nc2nc3ccccc3c(=O)n2-c2ccccc2)cc1 | > 100 µM (inactive) | > 100 µM (inactive) | 3.61 µM (inactive) | 60.7 µM (inactive) | > 100 µM (inactive) | > 100 µM (inactive) | > 100 µM (inactive) | > 100 µM (inactive) | > 100 | 2.28 µM (inactive) |  | > 100 µM (inactive) | > 100 µM (inactive) | 24.4 µM (inactive) |  | 28.2 µM (inactive) | > 100 µM (inactive) | > 100 µM (inactive) | > 100 µM (inactive) |  |
| Nn1c(Cc2ccc(Cl)cc2)n[nH]c1=O | > 100 µM (inactive) | > 100 µM (inactive) |  | > 100 µM (inactive) | > 100 µM (inactive) | > 100 µM (inactive) | > 100 µM (inactive) | > 100 µM (inactive) | > 100 | 34.3 µM (inactive) | > 100 µM (inactive) | > 100 µM (inactive) | > 100 µM (inactive) | > 100 µM (inactive) | > 100 µM (inactive) | > 100 µM (inactive) | > 100 µM (inactive) | > 100 µM (inactive) | > 100 µM (inactive) |  |
